Test results taken from ChEMBL document CHEMBL1158659, “The alkaloids of Delphinium cashmirianum” (J Nat Prod, 1979).

Columns and labels:
Assay type in all cases: functional
Oryctolagus cuniculus [1] = assay: Cardiovascular activity in Albino rabbit assessed as change in heart rate tested at basal heart rate of 180 beats/min at 0.25 mg/kg, iv by physiograph 4
Oryctolagus cuniculus [2] = assay: Cardiovascular activity in Albino rabbit assessed as change in heart rate tested at basal heart rate of 180 beats/min at 0.50 mg/kg, iv by physiograph 4; conditions: dose 0.5 mg/kg
Oryctolagus cuniculus [3] = assay: Cardiovascular activity in Albino rabbit assessed as change in heart rate tested at basal heart rate of 180 beats/min at 1.0 mg/kg, iv by physiograph 4
Oryctolagus cuniculus [4] = assay: Cardiovascular activity in Albino rabbit assessed as change in heart rate tested at basal heart rate of 178 beats/min at 0.50 mg/kg, iv by physiograph 4; conditions: dose 0.5 mg/kg
Oryctolagus cuniculus [5] = assay: Cardiovascular activity in Albino rabbit assessed as change in heart rate tested at basal heart rate of 178 beats/min at 1.0 mg/kg, iv by physiograph 4
Oryctolagus cuniculus [6] = assay: Cardiovascular activity in Albino rabbit assessed as sinusoidal heart rate tested at basal heart rate of 180 beats/min at 0.05 mg/kg, iv by physiograph 4
Oryctolagus cuniculus [7] = assay: Cardiovascular activity in Albino rabbit assessed as change in heart rate tested at basal heart rate of 180 beats/min at 0.10 mg/kg, iv by physiograph 4; conditions: dose 0.1 mg/kg
Oryctolagus cuniculus [8] = assay: Cardiovascular activity in Albino rabbit assessed as change in heart rate tested at basal heart rate of 185 beats/min at 0.10 mg/kg, iv by physiograph 4; conditions: dose 0.1 mg/kg
Oryctolagus cuniculus [9] = assay: Cardiovascular activity in Albino rabbit assessed as change in heart rate tested at basal heart rate of 185 beats/min at 0.25 mg/kg, iv by physiograph 4
Oryctolagus cuniculus [10] = assay: Cardiovascular activity in Albino rabbit assessed as change in heart rate tested at basal heart rate of 185 beats/min at 0.50 mg/kg, iv by physiograph 4; conditions: dose 0.5 mg/kg
Oryctolagus cuniculus [11] = assay: Cardiovascular activity in Albino rabbit assessed as change in heart rate tested at basal heart rate of 185 beats/min at 1.0 mg/kg, iv by physiograph 4
Oryctolagus cuniculus [12] = assay: Cardiovascular activity in Albino rabbit assessed as change in heart rate tested at basal heart rate of 185 beats/min at 5.0 mg/kg, iv by physiograph 4
Oryctolagus cuniculus [13] = assay: Cardiovascular activity in Albino rabbit assessed as change in heart rate tested at basal heart rate of 195 beats/min at 0.10 mg/kg, iv by physiograph 4; conditions: dose 0.1 mg/kg
Oryctolagus cuniculus [14] = assay: Cardiovascular activity in Albino rabbit assessed as change in heart rate tested at basal heart rate of 195 beats/min at 0.25 mg/kg, iv by physiograph 4
Oryctolagus cuniculus [15] = assay: Cardiovascular activity in Albino rabbit assessed as change in heart rate tested at basal heart rate of 195 beats/min at 0.50 mg/kg, iv by physiograph 4; conditions: dose 0.5 mg/kg
Oryctolagus cuniculus [16] = assay: Cardiovascular activity in Albino rabbit assessed as change in heart rate tested at basal heart rate of 195 beats/min at 1.0 mg/kg, iv by physiograph 4
Oryctolagus cuniculus [17] = assay: Cardiovascular activity in Albino rabbit assessed as change in heart rate tested at basal heart rate of 200 beats/min at 0.10 mg/kg, iv by physiograph 4; conditions: dose 0.1 mg/kg
Oryctolagus cuniculus [18] = assay: Cardiovascular activity in Albino rabbit assessed as change in heart rate tested at basal heart rate of 200 beats/min at 0.25 mg/kg, iv by physiograph 4
Oryctolagus cuniculus [19] = assay: Cardiovascular activity in Albino rabbit assessed as change in heart rate tested at basal heart rate of 200 beats/min at 0.50 mg/kg, iv by physiograph 4; conditions: dose 0.5 mg/kg
Oryctolagus cuniculus [20] = assay: Cardiovascular activity in Albino rabbit assessed as sinusoidal heart rate tested at basal heart rate of 200 beats/min at 0.05 mg/kg, iv by physiograph 4
Oryctolagus cuniculus [21] = assay: Cardiovascular activity in Albino rabbit assessed as sinusoidal heart rate tested at basal heart rate of 185 beats/min at 0.05 mg/kg, iv by physiograph 4
Oryctolagus cuniculus [22] = assay: Cardiovascular activity in Albino rabbit assessed as change in heart rate tested at basal heart rate of 200 beats/min at 1.0 mg/kg, iv by physiograph 4

SMILES | Activity (Oryctolagus cuniculus [1]) [bpm] | Activity (Oryctolagus cuniculus [2]) [bpm] | Activity (Oryctolagus cuniculus [7]) [bpm] | Activity (Oryctolagus cuniculus [8]) [bpm] | Activity (Oryctolagus cuniculus [9]) [bpm] | Activity (Oryctolagus cuniculus [10]) [bpm] | Activity (Oryctolagus cuniculus [11]) [bpm] | Activity (Oryctolagus cuniculus [12]) [bpm] | Activity (Oryctolagus cuniculus [17]) [bpm] | Activity (Oryctolagus cuniculus [18]) [bpm] | Activity (Oryctolagus cuniculus [19]) [bpm] | other results
CCN1C[C@]2(COC(=O)c3ccccc3NC(=O)CCC(=O)OC)CC[C@H](OC)[C@@]34[C@@H]5C[C@H]6[C@H](OC)[C@@H]5[C@](O)(C[C@@H]6OC)[C@](O)([C@@H](OC)[C@H]23)[C@@H]14 [CASHMIRADELPHINE] | -5 | -5 | 5 |  |  |  |  |  |  |  |  | Activity (Oryctolagus cuniculus [3]): -20 bpm; Activity (Oryctolagus cuniculus [4]): -8 bpm; Activity (Oryctolagus cuniculus [5]): -10 bpm; Activity (Oryctolagus cuniculus [6]): -5 bpm
CCN1C[C@]2(O)CC[C@H](OC)[C@@]34[C@@H]2C[C@H]([C@@H]13)[C@@]1(O)C[C@H](OC)[C@H]2C[C@@H]4[C@]1(O)[C@H]2OC [LAPPACONINE] |  |  |  | -5 | 0 | 0 | 0 | 0 |  |  |  | 
CCN1C[C@]2(COC(=O)c3ccccc3N3C(=O)CCC3=O)CC[C@H](OC)[C@]34C1[C@](O)([C@@H](OC)[C@H]23)[C@@]1(O)C[C@H](OC)[C@H]2C[C@@H]4[C@@H]1[C@H]2OC [LYCACONITINE] | 0 | -10 | -10 |  |  |  |  |  |  |  |  | Activity (Oryctolagus cuniculus [13]): 3 bpm; Activity (Oryctolagus cuniculus [14]): 5 bpm; Activity (Oryctolagus cuniculus [15]): 0 bpm; Activity (Oryctolagus cuniculus [16]): -5 bpm
CCN1C[C@]2(C=O)CC[C@H](OC)[C@@]34[C@@H]5C[C@@H]6[C@@H](OC)C[C@@](O)(C5[C@H]6OC)[C@](O)([C@@H](OC)[C@H]23)[C@@H]14 [LYCOCTONAL] |  |  |  | -5 | 0 | 0 | 0 | -10 | 0 | 0 | 0 | Activity (Oryctolagus cuniculus [20]): -3 bpm; Activity (Oryctolagus cuniculus [21]): 0 bpm
CCN1C[C@]2(CO)CC[C@H](OC)[C@@]34[C@@H]5C[C@H]6[C@H](OC)[C@@H]5[C@](O)(C[C@@H]6OC)[C@](O)([C@@H](OC)[C@H]23)[C@@H]14 [LYCOCTONINE] |  |  |  | -25 |  | 0 |  |  | 5 | 5 | 0 | Activity (Oryctolagus cuniculus [22]): 0 bpm
